Data published in US20050119337A1, “Methods of application of Schisandrin B in the preparation of anticancer medications” (priority 2003, published 2005).

Key:
K562/vcr = experiment: Reversal of drug resistance, MTT assay, 48 h; format: cell-based; conditions: FIG. 1
Experimental: To illustrate a method for reversal of drug resistance by application of Schisandrin B, cell lines K562/adr, K562/vcr (X. […] H. […] Cells were cultured in RPMI-1640 medium containing 10% fetal calf serum. […] The logarithmic growing cells were seeded into a 96 well plate (20,000 cells/well). Specific anticancer drugs (set forth in Table 1) and Schisandrin B in combination were added into the wells containing the select cell lines. […] Cell viability was assessed by MTT assays as described in X.

[1] = system: human epidermoid carcinoma MDR cell line KBV200; experiment: Reversal of drug resistance of KBV200, MTT assay, 72 h; format: cell-based; conditions: Schisandrin B versus verapamil
Experimental: In this embodiment, the IC50 of anticancer drugs in the presence or absence of Schisandrin B toward MDR cells was determined.
MTT assays were carried out in triplicate against human leukemia MDR cell line K562/adr and human epidermoid carcinoma MDR cell line KBV200. MTT assays as described previously (X. Hu, et al., Chemotherapy 41:296-305 (1995)) were used to determine the cytotoxicity of each anticancer drug in the presence or absence of Schisandrin B or verapmil.
Cells were treated with specific anticancer drugs as set forth therein. […] “SchB” represents cells treated with anticancer drugs in the presence of Schisandrin B (10 μg/ml).

K562/adr = experiment: Reversal of resistance to doxorubicin (FIG. 1); format: cell-based, human; conditions: in the presence of Schisandrin B
Experimental: To illustrate a method for reversal of drug resistance by application of Schisandrin B, cell lines K562/adr, K562/vcr (X. Hu et al., Chemotherapy 41:296-305 (1995)), and KBv200 (X. H. Zhang et al., Yao Xue Xue Bao 29:246-251 (1994)) were selected for use because these particular cell lines are characteristic of overexpression of P-glycoprotein. Cells were cultured in RPMI-1640 medium containing 10% fetal calf serum. The test compound Schisandrin B was dissolved in dimethyl sulfoxide (DMSO) (10 mg/ml as stock). The logarithmic growing cells were seeded into a 96 well plate (20,000 cells/well). Specific anticancer drugs (set forth in Table 1) and Schisandrin B in combination were added into the wells containing the select cell lines. Controls for each anticancer drug type without Schisandrin B were also seeded into the 96 well plate. […] Cell viability was assessed by MTT assays as described in X. Hu et al., Chemotherapy 41:296-305 (1995).

K562 cells = experiment: Cytotoxicity of Schisandrin B, MTT assay, 48 h; format: cell-based; conditions: 10 and 20 μg/ml, FIG. 2
Experimental: (§1) To illustrate the cytotoxicity of Schisandrin B according to the present disclosure, cell lines selected for use include cancer cell lines K562, K562/Adr, K562/vcr; primary cultured cells, including human peripheral blood mononuclear cells (PBMC) and human fibroblast cells; noncancer cell lines, including human bone marrow stromal cell D6p4 and human liver cell HL-7702. Cells were cultured in RPMI-1640 medium containing 10% fetal calf serum. The logarithmic growing cells were seeded into a 96 well plate (20,000 cells/well).

[2] = system: MDR cells (K562/Adr, K562/vcr); experiment: Cytotoxicity of Schisandrin B, MTT assay, 48 h; format: cell-based; conditions: 10 and 20 μg/ml, FIG. 2
Experimental: as §1

[3] = system: normal human cells (PBMC, fibroblast cells, bone marrow stromal cell D6p4, liver cell HL-7702); experiment: Cytotoxicity of Schisandrin B, MTT assay, 48 h; format: cell-based; conditions: 10 and 20 μg/ml, FIG. 2
Experimental: as §1

P-glycoprotein [4] = molecular target: T1, P-glycoprotein (Homo sapiens, UniProt P08183); experiment: Intracellular doxorubicin accumulation, flow cytometry; format: cell-based; conditions: doxorubicin 5 μg/ml, Schisandrin B 10 μg/ml, 60-120 minutes, FIG. 3
T1 construct: The cell line selected was MDR cancer cell K562/adr and its parental drug sensitive cell K562; endogenous in cells; host or cells: K562/adr (doxorubicin-selected human leukemia MDR cell line)
T1 sequence (P08183 whole entry): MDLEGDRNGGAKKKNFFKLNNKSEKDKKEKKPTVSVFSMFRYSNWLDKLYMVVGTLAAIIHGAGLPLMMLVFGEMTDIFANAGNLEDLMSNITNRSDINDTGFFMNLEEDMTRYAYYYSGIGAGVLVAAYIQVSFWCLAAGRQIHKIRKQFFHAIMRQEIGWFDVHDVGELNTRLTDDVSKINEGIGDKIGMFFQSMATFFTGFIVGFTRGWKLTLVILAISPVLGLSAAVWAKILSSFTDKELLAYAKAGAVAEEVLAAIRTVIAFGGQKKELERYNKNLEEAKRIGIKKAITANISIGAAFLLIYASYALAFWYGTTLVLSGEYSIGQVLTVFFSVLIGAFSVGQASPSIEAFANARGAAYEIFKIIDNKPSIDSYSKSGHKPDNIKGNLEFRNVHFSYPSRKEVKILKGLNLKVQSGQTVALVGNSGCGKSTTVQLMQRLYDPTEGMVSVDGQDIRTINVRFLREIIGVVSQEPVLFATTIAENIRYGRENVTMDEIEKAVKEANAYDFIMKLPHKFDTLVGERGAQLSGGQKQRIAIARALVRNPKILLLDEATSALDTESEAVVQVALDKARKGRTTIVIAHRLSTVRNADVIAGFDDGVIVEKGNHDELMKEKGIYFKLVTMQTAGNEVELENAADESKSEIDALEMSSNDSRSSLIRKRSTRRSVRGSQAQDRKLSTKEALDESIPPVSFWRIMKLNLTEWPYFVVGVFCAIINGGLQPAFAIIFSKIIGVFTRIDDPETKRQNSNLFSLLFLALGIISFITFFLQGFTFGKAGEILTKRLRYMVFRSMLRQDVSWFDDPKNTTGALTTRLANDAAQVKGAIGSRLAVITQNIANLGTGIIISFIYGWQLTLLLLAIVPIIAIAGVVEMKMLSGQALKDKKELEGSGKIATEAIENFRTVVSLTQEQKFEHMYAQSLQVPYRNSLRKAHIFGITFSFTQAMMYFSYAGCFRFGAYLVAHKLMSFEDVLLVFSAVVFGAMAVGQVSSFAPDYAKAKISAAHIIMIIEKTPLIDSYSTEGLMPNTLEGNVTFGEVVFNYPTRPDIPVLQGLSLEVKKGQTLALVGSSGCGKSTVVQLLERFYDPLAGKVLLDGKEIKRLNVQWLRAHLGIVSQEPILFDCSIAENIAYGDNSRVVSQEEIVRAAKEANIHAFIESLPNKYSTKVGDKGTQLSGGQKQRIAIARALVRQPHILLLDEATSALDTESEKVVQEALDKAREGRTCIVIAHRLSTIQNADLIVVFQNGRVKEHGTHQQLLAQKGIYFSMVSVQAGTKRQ
Experimental: The cell line selected was MDR cancer cell K562/adr and its parental drug sensitive cell K562. Cells were cultured in RPMI-1640 medium containing 10% fetal calf serum in cell-culture flasks.

P-glycoprotein [5] = molecular target: T1, P-glycoprotein; experiment: Daunorubicin accumulation, flow cytometry; format: cell-based; conditions: daunorubicin 2 μg/ml, Schisandrin B 10 μg/ml, FIG. 5
Experimental: P-glycoprotein functions as a drug pump that unilaterally pumps the anticancer drugs out of MDR cancer cells. Inhibition of P-glycoprotein results in an increase of the intracellular drug concentration within cancer cells. The inhibition of P-glycoprotein is assessed by analyzing the anticancer drug concentration within the test cells in the presence or absence of Schisandrin B. […] Cells were collected at intervals of 15, 30, 60, 90, 120, and 160 minutes after incubation.

P-glycoprotein [6] = molecular target: T1, P-glycoprotein; experiment: Rh-123 accumulation, flow cytometry; format: cell-based; conditions: Rh-123 2 μg/ml, Schisandrin B 10 μg/ml, FIG. 6
Experimental: P-glycoprotein functions as a drug pump that unilaterally pumps the anticancer drugs out of MDR cancer cells. Inhibition of P-glycoprotein results in an increase of the intracellular drug concentration within cancer cells. The inhibition of P-glycoprotein is assessed by analyzing the anticancer drug concentration within the test cells in the presence or absence of Schisandrin B. […] Cells were collected at intervals of 15, 30, 60, 90, and 120 minutes after incubation. […] At least 50,000 cells were analyzed for each sample.

KBV200 cells = experiment: Intracellular distribution of daunorubicin and Rh-123, fluorescent microscope; format: cell-based, human; conditions: KBV200, Schisandrin B 5 and 10 μg/ml, 1 hour, FIGS. 10 and 11
Experimental: To illustrate the effects of Schisandrin B on the intracellular distribution in MDR cancer cells, MDR cell KBV200 and its parental drug sensitive cell line KB were selected for use. […] The respective cultures were incubated at 37° C. for 1 hour, washed with ice-cold PBS, and the cells were observed under fluorescent microscope.

P-glycoprotein [7] = molecular target: T1, P-glycoprotein; experiment: [3H]Azidopine photoaffinity labeling of P-glycoprotein; format: binding; conditions: KBV200 cytoplasmic membranes, 1.0 μM azidopine, FIG. 14
Description: To illustrate that Schisandrin B physically interacts with P-glycoprotein according to the present disclosure, [^3H]Azidopine Photoaffinity Labeling of P-glycoportein in the presence or absence of Schisandrin B was used. [^3H]Azidopine is a chemical having unique properties that enable it to interact with P-glycoprotein. If Schisandrin B is also able to interact with P-glycoprotein, the binding of P-glycoprotein with [^3H]Azidopine would be reduced in the presence of Schisandrin B.
The cytoplasmic membranes (enriched with P-glycoprotein) of MDR cell KBV200 were prepared according to the methods as described in May GL, et al., Int. J. Cancer 42:728-733(1988) and Hyafil F, et al., Cancer Res. 53:4595-4602(1993). Membranes were incubated with Schisandrin B for 40 minutes in the dark, followed by 1 hour incubation with 1.0 μM [H]azidopine. After UV irradiation for 2 minutes, the photolabeled membranes were subjected to SDS-PAGE on a 7.5% gel, followed by fluorography.

KBV200-implanted tumor = experiment: In vivo reversal of drug resistance, KBV200-implanted tumor; set-up: species or system Balb/c nude mice; conditions: Balb/c nude mice bearing KBV200-implanted tumor
Experimental: Thirty nine Balb/c nu/nu female mice were inoculated subcutaneously with KBV200 cells (5×10^6 KBV200 cells/each mouse) on day 0. […] Mean body weights were recorded daily. All mice were observed once per day (or more) for mortality and signs of ill health (i.e., weight loss, change in appetite, or behavioral changes). Therapeutic comparisons were made between control and treatment groups by determining the tumor size. Tumor size was monitored approximately every other day by caliper measurements and calculated according to the formula [Tumor weight=(length×width^2)÷2]. The median survival times (MST) and the percent increase in life span (% ILS) were calculated as: % ILS=[(MSTtreatment/MSTcontrol)−1]×100.
“MST” represents median survival time. The survival rate (T/C %) was calculated by following equation: T/C(%)=[Average survival period in the test group/average survival period in the control group]×100. *P<0.05 compared to saline, vehicle, or Schisandrin B alone.

COc1cc2c(c(OC)c1OC)-c1c(cc3c(c1OC)OCO3)C[C@@H](C)[C@@H](C)C2 [Schisandrin B]
increase of sensitivity of K562/vcr to doxorubicin (K562/vcr; Schisandrin B 1 μg/ml): about 5 folds | increase of sensitivity of K562/vcr to doxorubicin (K562/vcr; Schisandrin B 10 μg/ml): ~12 folds | increase of sensitivity of K562/vcr to doxorubicin (K562/vcr; Schisandrin B 20 μg/ml): ~18 folds | potency in reversing vincristine resistance of KBV200 relative to verapamil [1]: about 5 folds | sensitivity of K562/adr to doxorubicin (K562/adr): greatly increased the sensitivity | cytotoxicity toward K562 cells (K562 cells): does demonstrate cytotoxicity | cytotoxicity toward MDR cells [2]: does not demonstrate cytotoxicity | cytotoxicity toward normal human cells [3]: does not demonstrate cytotoxicity | intracellular doxorubicin accumulation in K562/adr (P-glycoprotein [4]): restored intracellular doxorubicin accumulation | intracellular daunorubicin accumulation in K562/adr (P-glycoprotein [5]): restored intracellular daunorubicin accumulation | intracellular Rh-123 accumulation in KBV200 (P-glycoprotein [6]): restored intracellular Rh-123 accumulation | intracellular distribution of daunorubicin and Rh-123 in MDR cancer cells (KBV200 cells): partially restored | [3H]Azidopine binding with P-glycoprotein (P-glycoprotein [7]): inhibited | MST (KBV200-implanted tumor; doxorubicin 5 mg/kg i.v., Schisandrin B 50 mg/kg gastric intubation): 21.2 days | T/C (KBV200-implanted tumor; survival period in the test group / control group x 100): 101.9%
